Key:
Type in all cases: biochemical
Btk = biological target: T1, Btk (Homo sapiens, UniProt Q06187); experiment: Btk in vitro inhibitory activity (one of Method A TR-FRET, Method B electrophoretic mobility shift, Method C radiometric filter binding); settings: wild-type Btk; read-out: Btk-WT IC50
T1 construct: purified from insect cells as a full-length construct containing a N-terminal 6X-His tag; His6 (N); made in house; host or cells: insect cells (Method C)
Outline: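 Three alternative formats were used. A radiometric filter-binding read used 8 nM full-length His-BTK with 0.2 mg/mL poly(Glu-Tyr) 4:1 (C); microfluidic separation of 1 μM FAM-peptide by 1 nM BTK gave IC50 from 12-point curves (B); TR-FRET at Km ATP, 0.5 nM Btk, gave Ki(app)-derived IC50 (A).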

TEC = biological target: T2, TEC (Homo sapiens, UniProt P42680); experiment: Inhibition of a panel of kinases (in vitro HotSpot kinase assay, 33P-ATP, 1 μM ATP); settings: HotSpot kinase assay, 1 μM ATP
T2 sequence (P42680 1-631): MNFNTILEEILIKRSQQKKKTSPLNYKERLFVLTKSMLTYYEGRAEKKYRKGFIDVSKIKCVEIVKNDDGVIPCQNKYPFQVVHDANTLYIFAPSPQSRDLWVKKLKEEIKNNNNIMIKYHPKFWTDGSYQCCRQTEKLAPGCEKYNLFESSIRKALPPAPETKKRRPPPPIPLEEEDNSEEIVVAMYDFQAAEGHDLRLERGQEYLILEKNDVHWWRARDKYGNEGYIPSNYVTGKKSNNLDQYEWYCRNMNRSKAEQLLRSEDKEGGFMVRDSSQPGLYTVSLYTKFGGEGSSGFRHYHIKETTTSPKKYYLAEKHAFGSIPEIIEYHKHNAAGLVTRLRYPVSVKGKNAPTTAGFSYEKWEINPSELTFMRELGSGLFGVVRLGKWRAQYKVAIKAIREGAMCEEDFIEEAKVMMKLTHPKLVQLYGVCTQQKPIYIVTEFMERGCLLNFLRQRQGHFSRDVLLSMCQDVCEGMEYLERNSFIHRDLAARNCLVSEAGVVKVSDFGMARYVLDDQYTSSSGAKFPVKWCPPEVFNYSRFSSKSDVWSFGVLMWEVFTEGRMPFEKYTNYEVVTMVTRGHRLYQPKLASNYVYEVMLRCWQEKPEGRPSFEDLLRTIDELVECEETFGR
Outline: (§1)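 At 1 μM ATP spiked with 33P-ATP, substrate phosphorylation by the purified enzymes gives the extent of inhibition.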

panel of kinases = biological target: T3, panel of kinases (Homo sapiens, UniProt P51813); experiment: Inhibition of a panel of kinases (in vitro HotSpot kinase assay, 33P-ATP, 1 μM ATP), other kinases; settings: BMX wild-type, read-out: BMX-WT IC50
T3 sequence (P51813 1-675): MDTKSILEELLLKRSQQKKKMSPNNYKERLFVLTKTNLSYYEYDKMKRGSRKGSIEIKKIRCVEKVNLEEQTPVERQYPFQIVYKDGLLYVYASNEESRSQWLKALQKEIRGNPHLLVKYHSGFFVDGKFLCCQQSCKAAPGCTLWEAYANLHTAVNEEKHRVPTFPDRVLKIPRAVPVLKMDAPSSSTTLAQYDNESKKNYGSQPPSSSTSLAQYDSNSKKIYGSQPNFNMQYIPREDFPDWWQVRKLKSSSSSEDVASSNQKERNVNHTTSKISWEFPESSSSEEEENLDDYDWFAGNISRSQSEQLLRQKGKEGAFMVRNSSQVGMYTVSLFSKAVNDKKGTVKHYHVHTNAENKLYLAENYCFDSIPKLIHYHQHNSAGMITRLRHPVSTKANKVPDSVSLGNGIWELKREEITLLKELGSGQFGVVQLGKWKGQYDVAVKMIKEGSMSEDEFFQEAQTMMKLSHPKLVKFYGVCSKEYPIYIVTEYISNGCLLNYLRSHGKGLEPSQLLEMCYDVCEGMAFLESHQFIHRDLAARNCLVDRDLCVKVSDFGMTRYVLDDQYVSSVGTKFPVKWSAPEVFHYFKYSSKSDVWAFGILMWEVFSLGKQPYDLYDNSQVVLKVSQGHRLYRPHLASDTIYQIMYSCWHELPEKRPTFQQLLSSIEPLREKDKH
Outline: as §1

T1 sequence (Q06187 whole entry): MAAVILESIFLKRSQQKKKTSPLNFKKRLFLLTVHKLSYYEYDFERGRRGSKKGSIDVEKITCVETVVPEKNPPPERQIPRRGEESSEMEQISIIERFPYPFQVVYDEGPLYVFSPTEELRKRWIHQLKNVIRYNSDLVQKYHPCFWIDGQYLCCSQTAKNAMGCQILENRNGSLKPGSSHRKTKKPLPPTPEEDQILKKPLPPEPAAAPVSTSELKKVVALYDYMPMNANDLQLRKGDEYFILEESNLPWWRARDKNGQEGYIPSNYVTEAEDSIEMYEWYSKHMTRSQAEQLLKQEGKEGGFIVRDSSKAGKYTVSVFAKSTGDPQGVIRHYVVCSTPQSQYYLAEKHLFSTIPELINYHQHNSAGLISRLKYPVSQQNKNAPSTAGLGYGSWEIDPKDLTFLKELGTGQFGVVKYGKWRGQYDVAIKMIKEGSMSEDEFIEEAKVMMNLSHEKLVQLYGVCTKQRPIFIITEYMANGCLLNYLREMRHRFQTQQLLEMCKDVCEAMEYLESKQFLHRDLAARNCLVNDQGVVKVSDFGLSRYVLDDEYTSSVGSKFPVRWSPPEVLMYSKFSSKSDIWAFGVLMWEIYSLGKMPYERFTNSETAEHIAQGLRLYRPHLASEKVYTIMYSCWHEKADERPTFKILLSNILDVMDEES

Row | SMILES | IC50 (Btk) | IC50 (TEC) | IC50 (panel of kinases)
1 | C=CC(=O)N1CCC[C@@H](Nc2n[nH]c3nccc(-c4ccc(CNC(=O)c5cc(CC)on5)c(F)c4)c23)[C@H]1C [Example 304, 5-ethyl-N-{[2-fluoro-4-(3-{[(2R,3R)-2-methyl-1-(prop-2-enoyl)piperidin-3-yl]amino}-1H-pyrazolo[3,4-b]pyridin-4-yl)phenyl]methyl}-1,2-oxazole-3-carboxamide] | 0.908 nM | 15.9 nM | 4.59 nM
2 | CC(C)(C)c1cc(C(=O)NCc2ccc(-c3ccnc4[nH]nc(N5CC[C@@H](N)C5)c34)cc2F)no1 [Example 307, (R)-N-({4-[3-(3-aminopyrrolidin-1-yl)-1H-pyrazolo[3,4-b]pyridin-4-yl]-2-fluorophenyl}methyl)-5-tert-butyl-1,2-oxazole-3-carboxamide] | 3.33 nM | 3210 nM | 1420 nM
3 | C=CC(=O)N[C@@H]1CCN(c2n[nH]c3nccc(-c4ccc(CNC(=O)c5cc(C(C)(C)C)on5)c(F)c4)c23)C1 [Example 308, 5-tert-butyl-N-{[2-fluoro-4-(3-{(3R)-3-[(prop-2-enoyl)amino]pyrrolidin-1-yl}-1H-pyrazolo[3,4-b]pyridin-4-yl)phenyl]methyl}-1,2-oxazole-3-carboxamide] | 0.0594 nM | 47 nM | 35.6 nM
4 | CN(C)C/C=C/C(=O)N[C@@H]1CCN(c2n[nH]c3nccc(-c4ccc(CNC(=O)c5cc(C(C)(C)C)on5)c(F)c4)c23)C1 [Example 309, 5-tert-butyl-N-[(4-{3-[(3R)-3-{[(2E)-4-(dimethylamino)but-2-enoyl]amino}pyrrolidin-1-yl]-1H-pyrazolo[3,4-b]pyridin-4-yl}-2-fluorophenyl)methyl]-1,2-oxazole-3-carboxamide] | 0.434 nM | 1070 nM | 1010 nM
5 | C=CC(=O)N1CCC(Nc2n[nH]c3nccc(-c4ccc(CNCc5noc(C(C)(C)C)n5)c(F)c4)c23)C1 (stereo not drawn) [Example 310, 1-[3-({4-[4-({[(5-tert-butyl-1,2,4-oxadiazol-3-yl)methyl]amino}methyl)-3-fluorophenyl]-1H-pyrazolo[3,4-b]pyridin-3-yl}amino)pyrrolidin-1-yl]prop-2-en-1-one] | 106 nM | 3040 nM | 471 nM
6 | CC(C)(C)c1nc(C(=O)NCc2ccc(-c3ccnc4[nH]nc(N[C@@H]5CC[C@H](N)C5)c34)cc2F)no1 [Example 315, N-{[4-(3-{[(1R,3S)-3-aminocyclopentyl]amino}-1H-pyrazolo[3,4-b]pyridin-4-yl)-2-fluorophenyl]methyl}-5-tert-butyl-1,2,4-oxadiazole-3-carboxamide] | 3.79 nM | 2250 nM | 2580 nM
7 | C=CC(=O)N[C@H]1CCCC[C@@H]1Nc1n[nH]c2nccc(-c3ccc(CNC(=O)c4cc(C(C)(C)C)on4)c(F)c3)c12 [Example 318, 5-tert-butyl-N-({2-fluoro-4-[3-({(1S,2S)-2-[(prop-2-enoyl)amino]cyclohexyl}amino)-1H-pyrazolo[3,4-b]pyridin-4-yl]phenyl}methyl)-1,2-oxazole-3-carboxamide] | 26.4 nM | 8830 nM | 3030 nM
8 | C=CC(=O)N[C@H]1CC[C@@H](Nc2n[nH]c3nccc(-c4ccc(CNC(=O)c5noc(C(C)(C)C)n5)c(F)c4)c23)C1 [Example 320, 5-tert-butyl-N-({2-fluoro-4-[3-({(1R,3S)-3-[(prop-2-enoyl)amino]cyclopentyl}amino)-1H-pyrazolo[3,4-b]pyridin-4-yl]phenyl}methyl)-1,2,4-oxadiazole-3-carboxamide] | 0.0637 nM | 58.5 nM | 86.7 nM
9 | C=CC(=O)N[C@@H]1CC[C@H](C)N(c2n[nH]c3nccc(-c4ccc(CNC(=O)c5cc(C(C)(C)C)on5)c(F)c4)c23)C1 [Example 323, 5-tert-butyl-N-{[2-fluoro-4-(3-{(2S,5R)-2-methyl-5-[(prop-2-enoyl)amino]piperidin-1-yl}-1H-pyrazolo[3,4-b]pyridin-4-yl)phenyl]methyl}-1,2-oxazole-3-carboxamide] | 7.4 nM | 734 nM | 445 nM
10 | C=CC(=O)N[C@@H]1CCN(c2n[nH]c3nccc(-c4ccc(CNC(=O)c5ccc(C(C)(C)O)cc5)c(F)c4)c23)C1 [Example 325, N-{[2-fluoro-4-(3-{(3R)-3-[(prop-2-enoyl)amino]pyrrolidin-1-yl}-1H-pyrazolo[3,4-b]pyridin-4-yl)phenyl]methyl}-4-(2-hydroxypropan-2-yl)benzamide] | 0.163 nM | 31.3 nM | 87.1 nM
11 | CN(C)C(=O)N1CC[C@@H](Nc2n[nH]c3nccc(-c4ccc(CNC(=O)c5coc(C6CC6)n5)c(F)c4)c23)C1 [Example 329, 2-cyclopropyl-N-{[4-(3-{[(3R)-1-(dimethylcarbamoyl)pyrroli-din-3-yl]amino}-1H-pyrazolo[3,4-b]pyridin-4-yl)-2-fluorophenyl]methyl}-1,3-oxazole-4-carboxamide] | 307 nM | 5720 nM | 5900 nM
12 | CC(C)(C)c1noc(C(=O)NCc2ccc(-c3ccnc4[nH]nc(N5CCC(N)C5)c34)cc2F)n1 (stereo not drawn) [Example 330, N-({4-[3-(3-aminopyrrolidin-1-yl)-1H-pyrazolo[3,4-b]pyridin-4-yl]-2-fluorophenyl}methyl)-3-tert-butyl-1,2,4-oxadiazole-5-carboxamide] | 0.626 nM | 1320 nM | 1230 nM
13 | C=CC(=O)N[C@@H]1CCN(c2n[nH]c3nccc(-c4ccc(CNC(=O)c5nc(C(C)(C)C)no5)c(F)c4)c23)C1 [Example 331, 3-tert-butyl-N-{[2-fluoro-4-(3-{(3R)-3-[(prop-2-enoyl)amino]pyrrolidin-1-yl}-1H-pyrazolo[3,4-b]pyridin-4-yl)phenyl]methyl}-1,2,4-oxadiazole-5-carboxamide] | 0.0353 nM | 30 nM | 33.2 nM
14 | CNC1CCN(c2n[nH]c3nccc(-c4ccc(CNC(=O)c5nc(C(C)(C)C)no5)c(F)c4)c23)C1 (stereo not drawn) [Example 333, 3-tert-butyl-N-[(2-fluoro-4-{3-[3-(methylamino)pyrrolidin-1-yl]-1H-pyrazolo[3,4-b]pyridin-4-yl}phenyl)methyl]-1,2,4-oxadiazole-5-carboxamide] | 1.26 nM | 4360 nM | 4470 nM
15 | CN(Cc1ccc(-c2ccnc3[nH]nc(N4CC[C@@H](N)C4)c23)cc1F)C(=O)c1nc(C(C)(C)C)no1 [Example 334, (R)-N-({4-[3-(3-aminopyrrolidin-1-yl)-1H-pyrazolo[3,4-b]pyridin-4-yl]-2-fluorophenyl}methyl)-3-tert-butyl-N-methyl-1,2,4-oxadiazole-5-carboxamide] | 1.43 nM | 4170 nM | 1920 nM
16 | C=CC(=O)N[C@@H]1CCN(c2n[nH]c3nccc(-c4ccc(CN(C)C(=O)c5nc(C(C)(C)C)no5)c(F)c4)c23)C1 [Example 335, 3-tert-butyl-N-{[2-fluoro-4-(3-{(3R)-3-[(prop-2-enoyl)amino]pyrrolidin-1-yl}-1H-pyrazolo[3,4-b]pyridin-4-yl)phenyl]methyl}-N-methyl-1,2,4-oxadiazole-5-carboxamide] | 0.0513 nM | 57.7 nM | 61.3 nM
17 | CNC1CCN(c2n[nH]c3nccc(-c4ccc(CN(C)C(=O)c5nc(C(C)(C)C)no5)c(F)c4)c23)C1 (stereo not drawn) [Example 337, 3-tert-butyl-N-[(2-fluoro-4-{3-[3-(methylamino)pyrrolidin-1-yl]-1H-pyrazolo[3,4-b]pyridin-4-yl}phenyl)methyl]-N-methyl-1,2,4-oxadiazole-5-carboxamide] | 2.35 nM | 8030 nM | 5200 nM

Source: US20180194762A1 (Pharmacyclics LLC, priority 2017, published 2018)
